These results are taken from patent US20260232590A1, “LIPID NANOPARTICLES FOR THE TREATMENT OF OCULAR DISEASES” (UNIVERSITAT DE BARCELONA, priority 2023, published 2026).

In general, cell viability refers to a per cent measure of how many cells are alive, often set against a control. Lower therefore signals a greater loss of cells.

The conditions of data set [1]: concentration of 0.5%; cited from earlier work.
Data set [2] concerns chorioallantoic membrane of a fertilized chicken egg. As to the kind of experiment: In vitro ocular tolerance HET-CAM test. Conditions: 300 μL, first 5 min. The procedure:
In vitro ocular tolerance was assessed using the HET-CAM test to ensure that the formulations of Loaded Lipid Nanoparticles were non-irritating when administered as eye-drops. Irritation, coagulation, and haemorrhage phenomena were measured by applying 300 μL of the formulation studied on chorioallantoic membrane of a fertilized chicken egg and monitoring it during the first 5 min after the application. This assay was conducted according to the guidelines of ICCVAM (The Interagency Coordinating Committee on the Validation of Alternative Methods). The development of the test was carried out using 3 eggs for each group (free APG, Loaded Lipid Nanoparticles, positive control (NaOH 0.1 M) and negative control (0.9% NaCl)). The ocular irritation index (OII) was calculated by the sum of the scores of each injury according to the following expression (Eq 3):
[formula] • where H, V and C are times (s) until the start of haemorrhage (H), vasoconstriction (V) and coagulation (C), respectively. The formulations were classified according to the following: OII≤0.9 non-irritating; 0.9<OII≤4.9 weakly irritating; 4.9<OII≤8.9 moderately irritating; 8.9<OII≤21 irritating.

Data set [3] has the same test system. The experiment in a line: Trypan blue staining (TBS) of the CAM. Particulars: after HET-CAM. The procedure: Furthermore, at the end of the HET-CAM experiment, in order to quantify the damage of the membrane, trypan blue staining (TBS) was applied. The CAM was treated with 1000 μL of 0.1% trypan blue solution for 1 min. Excess dye was rinsed off with distilled water. The dyed CAM was excised and extracted with 5 mL formamide, and the absorbance of the extract was measured spectrophotometrically at 595 nm. The absorbed trypan blue was determined from a calibration curve of trypan blue in formamide.

The subject of data set [4] is UM 92.1 cancer cells. As to the kind of experiment: MTT cytotoxic capacity in ocular tumoral cells. The class given is cell-based, human. Conditions: 0.005-0.05 mg/mL, 24 h. The procedure: (§1) Human corneal epithelial cells (HCE-2) (LGC Standards, Barcelona, Spain) were cultured in keratinocyte serum-free growth medium (SFM; Life Technologies, Invitrogen, GIBCO®, Paisley, UK)). It was supplemented with bovine pituitary extract 0.05 mg·mL^−1 and epidermal growth factor 5 ng·mL^−1 containing insulin 0.005 mg·mL^−1 and penicillin 100 U·mL^−1 plus streptomycin […]. Cells were grown on a culture flask to 80% confluency in a humidified 10% CO2 atmosphere at 37° C. Human UM 92-1 cells were maintained in RPMI-1640 medium, added with 10% fetal bovine serum (FBS), 2 mM L-glutamine, 100 units/mL penicillin and […] streptomycin. For MTT assay, passages from 10 to 13 were used. All the cells were incubated at 37° C. and 10% CO2 [28].
Cytotoxicity of Loaded Lipid Nanoparticles and Lipid Nanoparticles was determined by MTT (3-(4,5-Dimethylthiazol-2-yl)-2,5-diphenyl tetrazolium bromide) assay, by reduction of tetrazolium salt by intracellular dehydrogenases of viable living cells. […] Cell viability was then measured at wavelength of 560 nm in a Modulus® Microplate Photometer (Turner BioSystems Inc., Sunnyvale, CA, USA). Results were expressed as percentage of cell survival relative to untreated cells. […]

A short description of data set [5]: In vitro APG release, Franz-type diffusion cells. The class given is in vitro ADME. The procedure: The in vitro APG release test for Loaded Lipid Nanoparticles was performed using Franz-type diffusion cells (Crown Glass, NY, USA) with a diffusion area of 0.20 cm^2 and dialysis membranes of cellulose (MWCO 12 kDa). A solution of PBS with 5% polysorbate 80 and 20% ethanol under continuous stirring was used as a receptor medium assuring sink conditions (ability of the medium to dissolve the expected amount of drug). The formulations were compared with free-APG solution. The assay was carried out at 32±0.5° C. along 48 h. 300 μL of each formulation were added to the donor compartment by direct contact with the membrane. At a certain timepoints, 150 μL of sample were collected with a syringe and the volume withdrawn was replaced with receptor solution. Drug content of the samples was analysed with HPLC. The test was performed by triplicate, and the cumulative amount of APG was calculated.

The test system of data set [6] is CAM of embryonated eggs. As to the kind of experiment: Antiangiogenic activity, modified CAM test. Also on record: species or system chicken. Conditions: 40 μL, 48 h. The procedure:
To determine the antiangiogenic effects of Loaded Lipid Nanoparticles, a modified choriolantoic membrane (CAM) test was used. It was carried out using fertilised chicken eggs incubated at 37° C. and 85% humidity from the farm […] (Tarragona, Spain). A lateral window was opened on the eggshell on the 3rd day of incubation and after 24 h of stabilization, 40 μL of the sample were inoculated to the CAM. Afterwards the membrane was sealed and incubated for 48 h. The controls of the experiments were NaCl as a normal angiogenic development, and basic fibroblast growth factor (bFGF) as a pro-angiogenic control (20 μL at 10 ng·mL^-1). Once CAM were evaluated, membranes were fixed by adding 4% paraformaldehyde overnight at 4° C. Next, membranes were extracted and observed using a binocular loupe. Afterwards, the obtained images were processed and the density of the vessels in the CAM was automatically measured using ImageJ vessel analysis plugin [34].

Data set [7] has as its system HCE-2 cells. The experiment in a line: MTT cell viability in corneal cells. Particulars: 5- and 15-minutes incubation. The format is cell-based, human. The procedure:
as §1
Cytotoxicity of Loaded Lipid Nanoparticles and Lipid Nanoparticles was determined by MTT (3-(4,5-Dimethylthiazol-2-yl)-2,5-diphenyl tetrazolium bromide) assay, by reduction of tetrazolium salt by intracellular dehydrogenases of viable living cells. […] Cell viability was then measured at wavelength of 560 nm in a Modulus® Microplate Photometer (Turner BioSystems Inc., Sunnyvale, CA, USA). Results were expressed as percentage of cell survival relative to untreated cells.
The cytotoxicity of several concentrations of free APG, Loaded Lipid Nanoparticles, and the Lipid Nanoparticles (without APG) were evaluated on HCE-2 cells. […]

Data set [8] has as its system New Zealand male albino rabbits. The experiment in a line: In vivo primary eye irritation test of Draize. Also on record: species or system rabbit. The procedure: All of the procedures were approved by the Ethical Committee for Animal Experimentation of the UB and current legislation (Decree 214/97, Gencat). The formulations were evaluated using primary eye irritation test of Draize to ensure the results obtained from the […] test. For this experiment, New Zealand male albino rabbits (2.0-2.5 kg, San Bernardo farm, Navarra, Spain) were used. 50 μL of each sample were instilled in the ocular conjunctival sac (n=3/group) and a mild massage was applied to guarantee the passage of the sample through the eyeball. […] The opposite untreated eye was used as a negative control. Draize test score was determined directly by observing the anterior segment of the eye and changes in the structures of the cornea (turbidity or opacity), iris and conjunctiva (congestion, chemosis, swelling and secretion).

For data set [9], the system named is dry eye induced by 0.1% benzalkonium chloride. As to the kind of experiment: Dry eye disease model, Schirmer test (aqueous tear production). The format is in vivo, New Zealand white rabbits. Particulars: twice-daily topical, one week. The procedure:
In order to evaluate the potential to treat dry eye of Loaded Lipid Nanoparticles, Schirmer test, fluorescein and Bengal rose assessments were performed against Lipid Nanoparticles, free APG and 0.15% hyaluronic acid (commercial solution Hyabak®). Twelve male New Zealand white rabbits (purchased from Livestock Research Institute, Council of Agriculture, Executive Yuan, Taiwan) weighing between 2.0 and 2.5 kg were used for the study. The rabbits were randomly divided into 4 groups: Lipid Nanoparticles, Loaded Lipid Nanoparticles, free APG solution and 0.15% hyaluronic acid (commercial solution (Hyabak®). All rabbits were housed at a room temperature of 23±2° C. with relative humidity 75±10% and alternating 12-hour light-dark cycles (8 a.m. to 8 p.m.). Both eyes of each rabbit were treated twice-daily by a topical administration of 0.1% benzalkonium chloride (BAC) drops for 2 weeks. On day 14, DES was confirmed by Schirmer test, fluorescein and Bengal rose staining. The treatment began after the confirmation of DES, where on eye of each rabbit was chosen randomly for twice-daily topical administration of Lipid Nanoparticles, Loaded Lipid Nanoparticles, free APG solution and a commercial solution. […] Tear production was measured using Schirmer test strips. […] After 5 min, the wetted length (mm) of the paper strips was recorded.

For data set [10] the test system is unchanged. The experiment in a line: Dry eye disease model, fluorescein staining of the ocular surface. The class given is in vivo, New Zealand white rabbits. Conditions: twice-daily topical, one week. The procedure:
In order to evaluate the potential to treat dry eye of Loaded Lipid Nanoparticles, Schirmer test, fluorescein and Bengal rose assessments were performed against Lipid Nanoparticles, free APG and 0.15% hyaluronic acid (commercial solution Hyabak®). Twelve male New Zealand white rabbits (purchased from Livestock Research Institute, Council of Agriculture, Executive Yuan, Taiwan) weighing between 2.0 and 2.5 kg were used for the study. The rabbits were randomly divided into 4 groups: Lipid Nanoparticles, Loaded Lipid Nanoparticles, free APG solution and 0.15% hyaluronic acid (commercial solution (Hyabak®). All rabbits were housed at a room temperature of 23±2° C. with relative humidity 75±10% and alternating 12-hour light-dark cycles (8 a.m. to 8 p.m.). Both eyes of each rabbit were treated twice-daily by a topical administration of 0.1% benzalkonium chloride (BAC) drops for 2 weeks. On day 14, DES was confirmed by Schirmer test, fluorescein and Bengal rose staining. The treatment began after the confirmation of DES, where on eye of each rabbit was chosen randomly for twice-daily topical administration of Lipid Nanoparticles, Loaded Lipid Nanoparticles, free APG solution and a commercial solution. After one week of treatment, Schirmer test, fluorescein and Bengal rose staining were performed. Fluorescein staining is an effective method for ocular surface evaluation. […]

Data set [11] concerns ocular inflammation induced by sodium arachidonate. The experiment in a line: In vivo anti-inflammatory treatment study (sodium arachidonate). Also on record: species or system New Zealand male albino rabbits. Conditions: applied 30 min after SA. The procedure: In vivo anti-inflammatory effectiveness was carried out throughout the evaluation test for the inflammation prevention ability and the anti-inflammatory efficacy. Assays were carried out using New Zealand male albino rabbits (n=3/group), described previously. The activity of Loaded Lipid Nanoparticles in comparison with free APG, Lipid Nanoparticles, and NaCl 0.9% (control group) was measured. The inflammation prevention study consisted of the ocular application of 50 μL of each formulation. After 30 min of exposure, an inflammatory stimulus, 50 μL of 0.5% sodium arachidonate (SA) dissolved in PBS, was instilled in the right eye and the left eye was used as a control. In the anti-inflammatory treatment study, the inflammatory stimulus was applied 30 min before than the application of each formulation tested. The evaluation of prevention and treatment of each formulation were carried out from the first application up to 210 min, according to the Draize modified test scoring system.

Structures are written as SMILES.

On to `CCCCCCCCCCCCCCCCCC[N+](C)(C)CCCCCCCCCCCCCCCCCC.[Br-]` [DDAB, dimethyldioctadecylammonium bromide], for which the “toxicity in ocular delivery” value in data set [1] was “had not shown any toxicity”.

With `[Na+].[OH-]` [NaOH], the HET-CAM irritation classification entry in data set [2] is reported as “severe irritant”.

With `O=c1cc(-c2ccc(O)cc2)oc2cc(O)cc(O)c12` [free APG, Apigenin], the “TBS quantitative result (irritancy)” value in [3] was “irritant”. Besides, the “cytotoxicity against cancer cells” value in data set [4] is “significant toxicity”. Further, in [5] (48 h), the “in vitro release profile” value is recorded as “faster release”. Besides, the APG released in [5] (at 24 h, 32° C., PBS with 5% polysorbate 80 and 20% ethanol) was 100%. Besides, the “vascular density versus negative control (NaCl)” value in [6] is recorded as “not significant”. The compound further had a cell viability in data set [7] of at least 80%. The “cell viability / toxicity” value in [7] (all the tested concentrations) was “did not show toxicity”. Moreover, the “Draize test irritancy in vivo” value in data set [8] (50 μL in conjunctival sac) is given as “non-irritant”. In data set [8] (in vivo), the discomfort after instillation result is listed as “caused an initial discomfort”. In addition, the “tear flow (Schirmer test) versus dry eye group” value in [9] is “did not improve the tear flow”. Besides, the “fluorescein staining score, corneal surface” value in data set [10] is listed as “worse punctuation in the staining”. Moreover, the inflammation treatment effect entry in [11] is given as “able to treat fast the inflammation”.
